This is an account of results in patent US9993490B2, “Phosphonic acid compounds and screening method” (The Board of Trustees of The University of Illinois, priority 2014, dated 2018).

For one data set, the system named is Escherichia coli WM6242. Description: Growth inhibition in liquid culture. Format: cell-based. To be noted: upon induction of phosphonate uptake machinery (1 mM IPTG); 100 ug ml^-1. The protocol: (§1) Antibiotic activity for purified PnPs was examined by growth inhibition in liquid cultures. Salmonella typhimurium LT2, Escherichia coli WM6242 (±1 mM IPTG), and Pseudomonas aeruginosa K were grown in M9-glucose. Bacillus subtilis subsp. spizizenii ATCC 6633, Staphylococcus aureus ATCC 25923, and Mycobacterium smegmatis NRRL B-14616 (37° C.) were cultivated in R2A. 96-Well plates containing 150 μL of media was inoculated with 1.5 uL of the appropriate cultures (OD600=0.4-0.5). Kanamycin, aminomethylphosphonate, 1-hydroxy-2-aminoethylphosphonate, (R)-2,3-dihydroxypropylphosphonate, argolaphos A, and argolaphos B were added to a final concentration of 100 ug ml^−1. After growth for 16 hours (24 for M. smegmatis) in a shaking incubator (200 rpm), cell densities recorded on a Tecan microplate reader.

Data set [1] relates to Mycobacterium smegmatis NRRL B-14616. As to the kind of experiment: Growth inhibition in liquid culture. It is filed as cell-based. The settings on record: 100 ug ml^-1, R2A, 37° C., 24 hours. The procedure:
as §1

Data set [2] can be described thus: Stability in the course of purification. To be noted: fraction 2 of S. durhamensis NRRL B-3309 extract. It is filed as physicochemical. The procedure: The liquid was concentrated to dryness and dissolved in 200 mL of 0.1% aqueous acetic acid, which was then applied to a 100 mL Fe(III) IMAC gravity column. Before sample loading the column was equilibrated with 0.1% acetic acid. After sample loading, the column was washed successively with 5 volumes of 0.1% acetic acid and 0.1% acetic acid in 20% acetonitrile (ACN). The materials were eluted from the column with 100 mM aqueous NH4HCO3. The eluate (200 mL) from the iron IMAC column was dried with a rotary evaporator as fraction 1. The unabsorbed sample was also dried as fraction 2.

In the case of `NCC(O)OP(=O)(O)O` (stereo not drawn) [Compound 11, 1-hydroxy-2-aminoethylphosphoric acid], the “antibiotic activity against E. coli” value with Escherichia coli WM6242 is listed as “effective antibiotic”.
Take `O=P(O)(O)C[C@H](O)CO` [Compound 4, (R)-2,3-dihydroxypropylphosphonic acid]: in data set [1], the “growth inhibition of Mycobacterium smegmatis” value is listed as “slightly inhibited growth”.
Take “cyclic 2,3-dihydroxypropanoic acid [Compound 6]”: the stability during purification result in data set [2] is “unstable and easily decomposed”.
